Laboratory results as given in US20260022142A1, “MACROCYCLIC IMMUNOMODULATORS” (Bristol-Myers Squibb Company, priority 2022, published 2026).
Numbered stars: 1 amine (or outer) side, 2 acyl side, 3 side chain; on linkers, the order of the positions; unused ones are H or OH. Bridge positions count the residues as written; N and C are the ends. Square brackets hold non-standard residues; d marks the D form. Peptide text beside a SMILES is read from it. * marks the point of attachment. ξ: configuration not given here. Ala(morpholin-4-yl) = N[C@@H](CN1CCOCC1)C(=O)O; Bip = N[C@@H](Cc1ccc(-c2ccccc2)cc1)C(=O)O; Phe(3-Me) = Cc1cccc(C[C@H](N)C(=O)O)c1; γGlu = O=C(O)[C@H](CCC(=O)[*:2])N[*:1]; 1Nal = N[C@@H](Cc1cccc2ccccc12)C(=O)O; NH(CH2)12COOH = O=C(O)CCCCCCCCCCCCN*; Val(3-OH) = CC(C)(O)[C@H](N)C(=O)O; X6 = O=C(Cc1ccc(CN[*:1])cc1)[*:2]; hArg = N=C(N)NCCCC[C@H](N)C(=O)O; 4Pal = N[C@@H](Cc1ccncc1)C(=O)O; Cha = N[C@@H](CC1CCCCC1)C(=O)O; Cit = NC(=O)NCCC[C@H](N)C(=O)O; Thr(3ξ) = CC(O)[C@H](N)C(=O)O; 12Ado = NCCCCCCCCCCCC(=O)O; Carboxymethyl = O=C(O)C*; Orn = NCCC[C@H](N)C(=O)O; Aun = NCCCCCCCCCCC(=O)O; Dab = NCC[C@H](N)C(=O)O; Dap = NC[C@H](N)C(=O)O; AEEA = NCCOCCOCC(=O)O; ξC = NC(CS)C(=O)O

Each compound was assayed against T1, PD-1/PD-L1 interaction (PE-labeled human PD-L1-Ig binding to Jurkat cell line over-expressing human PD-1) (Homo sapiens, UniProt Q15116) (assay: Jurkat-PD-1 Cell Binding High-Content Screening Assay (CBA)). Details: Jurkat cell line over-expressing human PD-1; PE-labeled PD-L1-Ig 20 nM final; read-out: Jurkat hPD1-PDL1 IC50.
T1 construct: expressed in transfected cells; host or cells: Jurkat
T1 sequence (Q15116 25-288): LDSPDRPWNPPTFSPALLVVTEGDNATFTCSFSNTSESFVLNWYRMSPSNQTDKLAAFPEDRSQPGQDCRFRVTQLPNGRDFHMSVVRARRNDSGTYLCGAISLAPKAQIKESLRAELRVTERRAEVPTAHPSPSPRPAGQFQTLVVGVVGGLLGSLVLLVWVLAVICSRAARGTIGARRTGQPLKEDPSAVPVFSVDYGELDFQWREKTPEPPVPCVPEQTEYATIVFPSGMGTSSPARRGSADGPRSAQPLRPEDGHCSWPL
Type: cell-based
How it was run: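 First, compound is added to PD-1-expressing Jurkat cells in serum-containing DMEM and left 2 h at 37° C. Next, PE-conjugated PD-L1-Ig is introduced at 20 nM final concentration for 1 hour. Finally, cells are fixed in 4% paraformaldehyde with Hoechst 33342, washed and imaged.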

Row | Structure (SMILES) | IC50
1 | Cc1cccc(C[C@@H]2NC(=O)[C@H](CC(=O)O)NC(=O)[C@H](Cc3ccc(OCC(=O)O)cc3)NC(=O)[C@H](CN)NC(=O)CSC[C@@H](C(=O)N[C@@H](CCN)C(=O)N[C@@H](CO)C(=O)NCCCCCCCCCCCC(=O)O)NC(=O)[C@H](CCCN)NC(=O)[C@H](C(C)C)NC(=O)[C@H](CC3CCCCC3)NC(=O)[C@H](CCN)NC(=O)[C@@H](CC(C)C)NC(=O)[C@H](CCCN)NC(=O)[C@H](Cc3ccc(O)cc3)NC(=O)[C@H](Cc3ccc(-c4ccccc4)cc3)NC(=O)[C@H](C(C)C)NC2=O)c1 [Compound 3588] ({CH2CO}-[Dap]Y(Carboxymethyl)D[Phe(3-Me)]V[Bip]Y[Orn][dL][Dab][Cha]V[Orn]C[Dab]S[12Ado]-OH; thioether N-14) | 16.7 nM
2 | CC(C)C[C@H]1NC(=O)[C@H](CCCN)NC(=O)[C@H](Cc2ccc(O)cc2)NC(=O)[C@H](Cc2ccc(-c3ccccc3)cc2)NC(=O)[C@H](C(C)C)NC(=O)[C@H](Cc2c[nH]c3ccccc23)NC(=O)[C@H](CC(=O)O)NC(=O)[C@H](Cc2ccc(OCC(=O)O)cc2)NC(=O)[C@H](Cc2ccncc2)NC(=O)CSC[C@@H](C(=O)N[C@@H](CCN)C(=O)NCCCCCCCCCCC(=O)O)NC(=O)[C@H](CCCN)NC(=O)[C@H](C(C)C)NC(=O)[C@H](CC2CCCCC2)NC(=O)[C@H](CCN)NC1=O [Compound 2702] ({CH2CO}-[4Pal]Y(Carboxymethyl)DWV[Bip]Y[Orn][dL][Dab][Cha]V[Orn]C[Dab][Aun]-OH; thioether N-14) | 25.7 nM
3 | Cc1cccc(C[C@@H]2NC(=O)[C@H](CC(=O)O)NC(=O)[C@H](Cc3ccc(OCC(=O)O)cc3)NC(=O)[C@H](CN)NC(=O)CSC[C@@H](C(=O)NCc3ccc(CC(=O)NCCCCCCCCCCC(=O)O)cc3)NC(=O)[C@H]([C@@H](C)O)NC(=O)[C@H](C(C)C)NC(=O)[C@H](CC3CCCCC3)NC(=O)[C@H](CCN)NC(=O)[C@@H](CC(C)C)NC(=O)[C@H](CCCN)NC(=O)[C@H](CCCNC(N)=O)NC(=O)[C@H](Cc3ccc(-c4ccccc4)cc3)NC(=O)[C@H](C(C)C)NC2=O)c1 [Compound 2624] ({CH2CO}-[Dap]Y(Carboxymethyl)D[Phe(3-Me)]V[Bip][Cit][Orn][dL][Dab][Cha]VTC[X6][Aun]-OH; thioether N-14) | 34.5 nM
4 | Cc1cccc(C[C@@H]2NC(=O)[C@H](CC(=O)O)NC(=O)[C@H](Cc3ccc(OCC(=O)O)cc3)NC(=O)[C@H](Cc3ccncc3)NC(=O)CSC[C@@H](C(=O)N[C@@H](CCN)C(=O)NCCCCCCCCCCC(=O)O)NC(=O)[C@H]([C@@H](C)O)NC(=O)[C@H](C(C)C)NC(=O)[C@H](CC3CCCCC3)NC(=O)[C@H](CCN)NC(=O)[C@@H](CC(C)C)NC(=O)[C@H](CCCN)NC(=O)[C@H](Cc3ccc(OCC(=O)O)cc3)NC(=O)[C@H](Cc3ccc(-c4ccccc4)cc3)NC(=O)[C@H](Cc3ccc(OCC(=O)O)cc3)NC2=O)c1 [Compound 2924] ({CH2CO}-[4Pal]Y(Carboxymethyl)D[Phe(3-Me)]Y(Carboxymethyl)[Bip]Y(Carboxymethyl)[Orn][dL][Dab][Cha]VTC[Dab][Aun]-OH; thioether N-14) | 16.8 nM
5 | CC(C)C[C@H]1NC(=O)[C@H](CCCN)NC(=O)[C@H](Cc2ccc(O)cc2)NC(=O)[C@H](Cc2ccc(-c3ccccc3)cc2)NC(=O)[C@H](Cc2ccc(OCC(=O)O)cc2)NC(=O)[C@H](Cc2cccc3ccccc23)NC(=O)[C@H](CC(=O)O)NC(=O)[C@H](Cc2ccc(OCC(=O)O)cc2)NC(=O)[C@H](CN)NC(=O)CSC[C@@H](C(=O)N[C@@H](CCN)C(=O)NCCOCCOCC(=O)NCCCCCCCCCCC(=O)O)NC(=O)[C@H](CCCN)NC(=O)[C@H](C(C)C)NC(=O)[C@H](CC2CCCCC2)NC(=O)[C@H](CCN)NC1=O [Compound 1305] ({CH2CO}-[Dap]Y(Carboxymethyl)D[1Nal]Y(Carboxymethyl)[Bip]Y[Orn][dL][Dab][Cha]V[Orn]C[Dab][AEEA][Aun]-OH; thioether N-14) | 43.4 nM
6 | Cc1cccc(C[C@@H]2NC(=O)[C@H](CC(=O)O)NC(=O)[C@H](Cc3ccc(O)cc3)NC(=O)[C@H](CC(N)=O)NC(=O)CSC[C@@H](C(=O)N[C@@H](CCN)C(=O)NCCCCCCCCCCC(=O)O)NC(=O)[C@H](CCCN)NC(=O)[C@H](C(C)C)NC(=O)[C@H](CC3CCCCC3)NC(=O)[C@H](CCN)NC(=O)[C@@H](CC(C)C)NC(=O)[C@H](CCCN)NC(=O)[C@H](Cc3ccc(O)cc3)NC(=O)[C@H](Cc3ccc(-c4ccccc4)cc3)NC(=O)[C@H](C(C)C)NC2=O)c1 [Compound 2696] ({CH2CO}-NYD[Phe(3-Me)]V[Bip]Y[Orn][dL][Dab][Cha]V[Orn]C[Dab][Aun]-OH; thioether N-14) | 19.1 nM
7 | Cc1cccc(C[C@@H]2NC(=O)[C@H](CC(=O)O)NC(=O)[C@H](Cc3ccc(OCC(=O)O)cc3)NC(=O)[C@H](CN)NC(=O)CSC[C@@H](C(=O)N[C@@H](CCN)C(=O)NCCCCCCCCCCC(=O)O)NC(=O)[C@@H](CO)NC(=O)[C@H](C(C)C)NC(=O)[C@H](CC3CCCCC3)NC(=O)[C@H](CCN)NC(=O)[C@@H](CC(C)C)NC(=O)[C@H](CCCN)NC(=O)[C@H](Cc3ccc(OCC(=O)O)cc3)NC(=O)[C@H](Cc3ccc(-c4ccccc4)cc3)NC(=O)[C@H](C(C)C)NC2=O)c1 [Compound 2097] ({CH2CO}-[Dap]Y(Carboxymethyl)D[Phe(3-Me)]V[Bip]Y(Carboxymethyl)[Orn][dL][Dab][Cha]V[dS]C[Dab][Aun]-OH; thioether N-14) | 38.8 nM

Now those with a lower IC50, led by results:

Row | IC50 | Structure (SMILES)
8 | 15.8 nM | CC(C)C[C@H]1NC(=O)[C@H](CCCN)NC(=O)[C@H](C(C)C)NC(=O)[C@H](Cc2ccc(-c3ccccc3)cc2)NC(=O)[C@H](C(C)C)NC(=O)[C@H](Cc2c[nH]c3ccccc23)NC(=O)[C@H](CC(=O)O)NC(=O)[C@H](Cc2ccc(OCC(=O)O)cc2)NC(=O)[C@H](CN)NC(=O)CSC[C@@H](C(=O)N[C@@H](CCN)C(=O)NCCOCCOCC(=O)N[C@@H](CCC(=O)NCCCCCCCCCCC(=O)O)C(=O)O)NC(=O)[C@H](CCCN)NC(=O)[C@H](C(C)O)NC(=O)[C@H](CC2CCCCC2)NC(=O)[C@H](CCN)NC1=O (stereo partly drawn) [Compound 3680] ({CH2CO}-[Dap]Y(Carboxymethyl)DWV[Bip]V[Orn][dL][Dab][Cha][Thr(3ξ)][Orn]C[Dab][AEEA][γGlu][Aun]-OH; thioether N-14)
9 | 4.3 nM | Cc1cccc(C[C@@H]2NC(=O)[C@H](CC(=O)O)NC(=O)[C@H](Cc3ccc(OCC(=O)O)cc3)NC(=O)[C@H](CCCCNC(=N)N)NC(=O)CSC[C@@H](C(=O)N[C@@H](CCN)C(=O)NCCCCCCCCCCC(=O)O)NC(=O)[C@H](CCCN)NC(=O)[C@H](C(C)C)NC(=O)[C@H](CC3CCCCC3)NC(=O)[C@H](CCN)NC(=O)[C@@H](CC(C)C)NC(=O)[C@H](CCN)NC(=O)[C@H](CCC(N)=O)NC(=O)[C@H](Cc3ccc(-c4ccccc4)cc3)NC(=O)[C@H](C(C)C)NC2=O)c1 [Compound 3359] ({CH2CO}-[hArg]Y(Carboxymethyl)D[Phe(3-Me)]V[Bip]Q[Dab][dL][Dab][Cha]V[Orn]C[Dab][Aun]-OH; thioether N-14)
10 | 12.9 nM | CC(C)C[C@H]1NC(=O)[C@H](CCCN)NC(=O)[C@H](Cc2ccc(O)cc2)NC(=O)[C@H](Cc2ccc(-c3ccccc3)cc2)NC(=O)[C@H](C(C)C)NC(=O)[C@H](Cc2c[nH]c3ccccc23)NC(=O)[C@H](CC(=O)O)NC(=O)[C@H](Cc2ccc(OCC(=O)O)cc2)NC(=O)[C@H]([C@@H](C)O)NC(=O)CSC[C@@H](C(=O)N[C@@H](CCN)C(=O)NCCCCCCCCCCC(=O)O)NC(=O)[C@H](CCCNC(N)=O)NC(=O)[C@H](C(C)C)NC(=O)[C@H](CC2CCCCC2)NC(=O)[C@H](CCN)NC1=O [Compound 2729] ({CH2CO}-TY(Carboxymethyl)DWV[Bip]Y[Orn][dL][Dab][Cha]V[Cit]C[Dab][Aun]-OH; thioether N-14)
11 | 10.7 nM | Cc1cccc(C[C@@H]2NC(=O)[C@H](CC(=O)O)NC(=O)[C@H](Cc3ccc(OCC(=O)O)cc3)NC(=O)[C@H](C(C)O)NC(=O)CSC[C@@H](C(=O)N[C@@H](CC(N)=O)C(=O)NCCCCCCCCCCC(=O)O)NC(=O)[C@H](CCCNC(N)=O)NC(=O)[C@H](C(C)C)NC(=O)[C@H](CC3CCCCC3)NC(=O)[C@H](CCN)NC(=O)[C@@H](CC(C)C)NC(=O)[C@H](CCCN)NC(=O)[C@H](Cc3ccc(O)cc3)NC(=O)[C@H](Cc3ccc(-c4ccccc4)cc3)NC(=O)[C@H](C(C)C)NC2=O)c1 (stereo partly drawn) [Compound 3426] ({CH2CO}-[Thr(3ξ)]Y(Carboxymethyl)D[Phe(3-Me)]V[Bip]Y[Orn][dL][Dab][Cha]V[Cit]CN[Aun]-OH; thioether N-14)
12 | 4.1 nM | Cc1cccc(C[C@@H]2NC(=O)[C@H](CC(=O)O)NC(=O)[C@H](Cc3ccc(OCC(=O)O)cc3)NC(=O)[C@H](CN3CCOCC3)NC(=O)CSC[C@@H](C(=O)N[C@@H](CCN)C(=O)NCCOCCOCC(=O)NCCOCCOCC(=O)NCCCCCCCCCCCCC(=O)O)NC(=O)[C@H](CO)NC(=O)[C@H](C(C)(C)O)NC(=O)[C@H](CC3CCCCC3)NC(=O)[C@H](CCN)NC(=O)[C@@H](CC(C)C)NC(=O)[C@H](CCCN)NC(=O)[C@H](Cc3ccc(OCC(=O)O)cc3)NC(=O)[C@H](Cc3ccc(-c4ccccc4)cc3)NC(=O)[C@H](Cc3ccc(OCC(=O)O)cc3)NC2=O)c1 [Compound 2896] ({CH2CO}-[Ala(morpholin-4-yl)]Y(Carboxymethyl)D[Phe(3-Me)]Y(Carboxymethyl)[Bip]Y(Carboxymethyl)[Orn][dL][Dab][Cha][Val(3-OH)]SC[Dab][AEEA][AEEA]-{NH(CH2)12COOH}; thioether N-14)
13 | 7.7 nM | Cc1cccc(C[C@@H]2NC(=O)[C@H](CC(=O)O)NC(=O)[C@H](Cc3ccc(OCC(=O)O)cc3)NC(=O)[C@H](CN)NC(=O)CSCC(C(=O)NCCOCCOCC(=O)NCCCCCCCCCCC(=O)O)NC(=O)[C@H](CCCN)NC(=O)[C@H](C(C)C)NC(=O)[C@H](CC3CCCCC3)NC(=O)[C@H](CCN)NC(=O)[C@@H](CC(C)C)NC(=O)[C@H](CCCN)NC(=O)[C@H](CCCNC(N)=O)NC(=O)[C@H](Cc3ccc(-c4ccccc4)cc3)NC(=O)[C@H](C(C)C)NC2=O)c1 (stereo partly drawn) [Compound 2647] ({CH2CO}-[Dap]Y(Carboxymethyl)D[Phe(3-Me)]V[Bip][Cit][Orn][dL][Dab][Cha]V[Orn][ξC][AEEA][Aun]-OH; thioether N-14)
